Values joined by “and” are separate entries in the source; they are usually repeats but may differ in a detail not shown here. Equal values may be shown once. “Also recorded” adds a separate entry of the source. Read-outs that look alike come from different tables or passages of the source.
Assay: Plasma kinetics in rat following intravenous and oral administration
Format: in vivo, Sprague Dawley rats
Conditions: male rats; for concentration at 24 h: iv; for MRT: read-out: MRT
Method: This study determined the intravenous pharmacokinetics and oral bioavailability of compound 1 of the invention (see FIG. 1A, structure no. 1), compound 2 of the invention (see FIG. 1D, structure no. 19) and compound 3 of the invention (see FIG. 1I, structure no. 53) following administration to Sprague Dawley rats at a dose level of 10 mg/kg.
Six groups of 3 male rats received either a single intravenous or single oral administration of compound 1, 2 or 3 of the invention at a dose level of 10 mg/kg. Blood samples were obtained at various times after dosing. Plasma samples were analysed for unchanged test item using a suitable LC-MS/MS method. Pharmacokinetic parameters were estimated from individual plasma concentrations.
Eighteen male rats each received either a single intravenous or a single oral administration of either compound 1, 2 or 3 at a dose level of 10 mg/kg. The formulation was orally administered to each animal by gastric gavage and intravenously administered to each animal via a tail vein. The dose was administered at a dose volume of 5 mL/kg. The formulations were administered to each animal according to the details in the following table:
Blood samples (ca 0.3 mL) were removed from the femoral vein of each animal into tubes containing lithium heparin as anticoagulant.
Blood samples were collected from 3 rats at the following times after dose administration: • 3, 6, 15, 45 min and 1.5, 2.5, 4, 6, 8, 24 h post dose. Oral Administration
Blood samples were collected from 3 rats at the following times after dose administration: • 5, 15, 45 min and 1.5, 2.5, 4, 6, 8, 24 h post dose. Processing of Blood Samples
Pharmacokinetic parameters of compound 1, 2 and 3 were derived by non-compartmental analysis using WinNonLin Pro version 5.0.1 (Pharsight 2005). The following parameters were derived, where appropriate, from the individual plasma concentration versus time profiles:
• F % The absolute oral bioavailability calculated as [AUC0-t (oral)*Dose(iv)/AUC0-t (iv)*Dose (oral)]*100 based on mean values derived after oral and intravenous administration Consideration was given to the estimation of λz and corresponding t1/2 values. Three or more points are required within the terminal phase for λz and t1/2 to be estimated. The following additional variables were tabulated to aid identification of potentially unreliable estimates of t1/2 and AUC:
Pharmacokinetic parameters were reported as geometric mean except Tmax which was reported as the median. Geometric coefficient of variation was calculated as: […]
Actual sampling times were used for all calculations of pharmacokinetic parameters. Plasma concentrations that were below the limit of quantification were taken as zero for the pharmacokinetic analysis.

[1] = male, Sprague Dawley, rat, plasma, po, 10 mg/kg, oral 10 mg/kg, individual animals
[2] = oral 10 mg/kg, individual animals, acetate, 10 mg/kg

concentration at 24 h (male, Sprague Dawley, rat, plasma, 10 mg/kg, single intravenous 10 mg/kg, 24 h, individual animals, LLOQ 2.50, read-out: Sample Concentration in plasma): 3.95 ng/mL | concentration at 24 h (male, Sprague Dawley, rat, plasma, 10 mg/kg, single intravenous 10 mg/kg, 24 h, mean, read-out: Mean Concentration in plasma): 3.95 ng/mL | AUC(0-t) (male, Sprague Dawley, rat, plasma, po, 10 mg/kg, oral 10 mg/kg, Arithmetic Mean, read-out: AUC0-t): 67.4 ng·h/mL | Cmax (male, Sprague Dawley, rat, plasma, po, 10 mg/kg, oral 10 mg/kg, Arithmetic Mean, read-out: Cmax): 31.2 ng/mL | Tmax (male, Sprague Dawley, rat, plasma, po, 10 mg/kg, oral 10 mg/kg, Arithmetic Mean, read-out: tmax): 1.75 h | AUC(0-t) (male, Sprague Dawley, rat, plasma, po, 10 mg/kg, oral 10 mg/kg, Geometric mean, read-out: AUC0-t): 66.1 ng·h/mL | Cmax (male, Sprague Dawley, rat, plasma, po, 10 mg/kg, oral 10 mg/kg, Geometric mean, read-out: Cmax): 26.3 ng/mL | MRT (male, Sprague Dawley, rat, plasma, po, 10 mg/kg, oral 10 mg/kg, Geometric mean): 3.06 h | half-life (male, Sprague Dawley, rat, plasma, po, 10 mg/kg, oral 10 mg/kg, Geometric mean, read-out: t1/2 (converted)): 135 min | Tmax (male, Sprague Dawley, rat, plasma, po, 10 mg/kg, oral 10 mg/kg, Geometric mean, read-out: tmax): 1.16 h | AUC(0-t) (male, Sprague Dawley, rat, plasma, po, 10 mg/kg, oral 10 mg/kg, Median, read-out: AUC0-t): 62.6 ng·h/mL | Cmax (male, Sprague Dawley, rat, plasma, po, 10 mg/kg, oral 10 mg/kg, Median, read-out: Cmax): 18.8 ng/mL | Tmax (male, Sprague Dawley, rat, plasma, po, 10 mg/kg, oral 10 mg/kg, Median, read-out: tmax): 2.5 h | AUC(0-inf) [1]: 102 ng·h/mL | AUC(0-t) (male, Sprague Dawley, rat, plasma, po, 10 mg/kg, oral 10 mg/kg, individual animals, read-out: AUC0-t): 85.6 ng·h/mL | MRT [1]: 3.06 h | half-life (male, Sprague Dawley, rat, plasma, po, 10 mg/kg, oral 10 mg/kg, individual animals, read-out: t1/2 (converted)): 135 min | Tmax (male, Sprague Dawley, rat, plasma, po, 10 mg/kg, oral 10 mg/kg, from mean plasma concentrations, read-out: time post dose at which maximum plasma concentration was observed (tmax)): 2.5 h | half-life (male, Sprague Dawley, rat, plasma, po, 10 mg/kg, oral 10 mg/kg, read-out: apparent terminal half-life (converted)): 135 min | concentration at 0.05 h (male, Sprague Dawley, rat, plasma, po, 10 mg/kg, single oral 10 mg/kg, 0.05 h, individual animals, LLOQ 2.50, read-out: Sample Concentration in plasma): 4.68 ng/mL | concentration at 0.05 h (male, Sprague Dawley, rat, plasma, po, 10 mg/kg, single oral 10 mg/kg, 0.05 h, mean, read-out: Mean Concentration in plasma): 4.68 ng/mL | concentration at 0.25 h (male, Sprague Dawley, rat, plasma, po, 10 mg/kg, single oral 10 mg/kg, 0.25 h, mean of 3, read-out: Mean Concentration in plasma): 25.5 ng/mL | concentration at 0.75 h (male, Sprague Dawley, rat, plasma, po, 10 mg/kg, single oral 10 mg/kg, 0.75 h, mean of 3, read-out: Mean Concentration in plasma): 13.9 ng/mL | concentration at 1.5 h (male, Sprague Dawley, rat, plasma, po, 10 mg/kg, single oral 10 mg/kg, 1.5 h, individual animals, read-out: Sample Concentration in plasma): 9.56 ng/mL | concentration at 1.5 h (male, Sprague Dawley, rat, plasma, po, 10 mg/kg, single oral 10 mg/kg, 1.5 h, mean of 3, read-out: Mean Concentration in plasma): 12.3 ng/mL | concentration at 2.5 h (male, Sprague Dawley, rat, plasma, po, 10 mg/kg, single oral 10 mg/kg, 2.5 h, individual animals, read-out: Sample Concentration in plasma): 16.5 ng/mL | concentration at 2.5 h (male, Sprague Dawley, rat, plasma, po, 10 mg/kg, single oral 10 mg/kg, 2.5 h, mean of 3, read-out: Mean Concentration in plasma): 17.1 ng/mL | concentration at 4 h (male, Sprague Dawley, rat, plasma, po, 10 mg/kg, single oral 10 mg/kg, 4 h, mean of 3, read-out: Mean Concentration in plasma): 7.91 ng/mL | concentration at 6 h (male, Sprague Dawley, rat, plasma, po, 10 mg/kg, single oral 10 mg/kg, 6 h, individual animals, read-out: Sample Concentration in plasma): 2.76 ng/mL | concentration at 6 h (male, Sprague Dawley, rat, plasma, po, 10 mg/kg, single oral 10 mg/kg, 6 h, mean of 3, read-out: Mean Concentration in plasma): 3.81 ng/mL | MAT (oral 10 mg/kg, individual animals): -0.465 h | AUC(0-t) [2]: 62.6 ng·h/mL and 54.0 ng·h/mL | Cmax [2]: 58.4 ng/mL and 16.5 ng/mL | Tmax [2]: 0.250 h | maximum observed plasma concentration, mean value (oral 10 mg/kg, at tmax): 17.1 ng/mL | Sample Concentration in plasma (single intravenous 10 mg/kg, 0.05 h, individual animals, acetate, 10 mg/kg): 2270 ng/mL and 3150 ng/mL | Sample Concentration in plasma (single intravenous 10 mg/kg, 0.1 h, individual animals, acetate, 10 mg/kg): 1020 ng/mL and 1410 ng/mL | Sample Concentration in plasma (single intravenous 10 mg/kg, 0.25 h, individual animals, acetate, 10 mg/kg): 612 ng/mL and 712 ng/mL | Sample Concentration in plasma (single intravenous 10 mg/kg, 0.75 h, individual animals, acetate, 10 mg/kg): 237 ng/mL and 334 ng/mL | Sample Concentration in plasma (single intravenous 10 mg/kg, 1.5 h, individual animals, acetate, 10 mg/kg): 232 ng/mL and 168 ng/mL | Sample Concentration in plasma (single intravenous 10 mg/kg, 2.5 h, individual animals, acetate, 10 mg/kg): 183 ng/mL and 194 ng/mL | Sample Concentration in plasma (single intravenous 10 mg/kg, 4 h, individual animals, acetate, 10 mg/kg): 158 ng/mL and 115 ng/mL | Sample Concentration in plasma (single intravenous 10 mg/kg, 6 h, individual animals, acetate, 10 mg/kg): 116 ng/mL and 58.1 ng/mL | Sample Concentration in plasma (single intravenous 10 mg/kg, 8 h, individual animals, LLOQ 2.50, acetate, 10 mg/kg): 42.7 ng/mL and 98.4 ng/mL and 54.1 ng/mL | Sample Concentration in plasma (single intravenous 10 mg/kg, 24 h, individual animals, LLOQ 2.50, acetate, 10 mg/kg): <LLOQ | Sample Concentration in plasma (single oral 10 mg/kg, 0.05 h, individual animals, LLOQ 2.50, acetate, 10 mg/kg): <LLOQ | Sample Concentration in plasma (single oral 10 mg/kg, 0.75 h, individual animals, acetate, 10 mg/kg): 9.02 ng/mL and 10.4 ng/mL and 22.4 ng/mL | Sample Concentration in plasma (single oral 10 mg/kg, 1.5 h, individual animals, acetate, 10 mg/kg): 9.84 ng/mL and 17.4 ng/mL | Sample Concentration in plasma (single oral 10 mg/kg, 2.5 h, individual animals, acetate, 10 mg/kg): 18.8 ng/mL and 16.1 ng/mL | Sample Concentration in plasma (single oral 10 mg/kg, 4 h, individual animals, acetate, 10 mg/kg): 12.6 ng/mL and 4.79 ng/mL and 6.35 ng/mL | Sample Concentration in plasma (single oral 10 mg/kg, 6 h, individual animals, acetate, 10 mg/kg): 3.74 ng/mL and 4.94 ng/mL | Sample Concentration in plasma (single oral 10 mg/kg, 8 h, individual animals, LLOQ 2.50): <LLOQ | Mean Concentration in plasma (single oral 10 mg/kg, 8 h, mean, LLOQ 2.50): <LLOQ | Sample Concentration in plasma (single oral 10 mg/kg, 24 h, individual animals, LLOQ 2.50): <LLOQ | Mean Concentration in plasma (single oral 10 mg/kg, 24 h, mean, LLOQ 2.50): <LLOQ
SMILES: N=C(N)NN=CC=Cc1cccn1-c1ccccc1[N+](=O)[O-] [Compound 2, [1-(2-nitrophenyl)-1H-pyrrol-2-yl-allylideneamino]guanidinium acetate]
adverse effects (single intravenous or oral administration, 10 mg/kg, acetate): No adverse effects; also recorded: No adverse affects | Sample Concentration in plasma (single oral 10 mg/kg, 0.25 h, individual animals, acetate, 10 mg/kg): 9.11 ng/mL and 9.01 ng/mL and 58.4* ng/mL

Source: patent publication US8058306B2, “Phenyl pyrrole aminoguanidine derivatives” (Action Pharma A/S, priority 2006, dated 2011)
